Results on 52 molecules are retold here after PubChem BioAssay AID1996.

The structures appear in SMILES notation. In brackets after ≈: the same amount, converted by molar mass.

For this series the following is noted: buffer; pH 7.4; 200.0 µM.
On to `O=C(COC(=O)c1ccccc1O)NCc1ccco1`, for which the kinetic solubility (in general, solubility judged after dilution from a stock solution rather than from solid) is above 41.3 µg/mL.
Under `COc1ccccc1CNC(=O)C1CCC(=O)N1C(C)C` (configuration not stated) stands above 43.6 µg/mL; under `O=C(CS(=O)c1ccc(Br)cc1)N1CCOCC1` (configuration not stated), 49.4 µg/mL (≈ 149 µM).
`CCN1CCc2c(OCC(=O)Nc3ccc4c(c3)OCCO4)cccc2C1=O` registered a solubility (kinetic) of 29.8 µg/mL (≈ 77.9 µM).
Under `O=C(NCCC1=CCCCC1)C1CCN(C(=O)Cc2ccccc2)CC1` stands above 53.2 µg/mL.
Under `CN1C2CCC1CC(NS(=O)(=O)c1ccc(C#N)cc1)C2` (configuration not stated) stands 45.6 µg/mL (≈ 149 µM); under `Cc1csc(=O)n1CC(=O)Nc1ccc(S(C)(=O)=O)cc1`, above 49 µg/mL; under `Cc1ccc(CCCOC(=O)CN2CCCCC2)cc1`, 23.5 µg/mL (≈ 85.3 µM).
With `COc1cccc(OCC(=O)Nc2ccncc2)c1` the figure was above 38.7 µg/mL; with `C[C@H](NC(=O)c1ccco1)C(=O)N1CCN(c2ccc(C(F)(F)F)cn2)CC1`, above 59.5 µg/mL; with `O=C(O)CC1(CC(=O)Nc2ccc(F)cc2F)CCCCC1`, above 46.7 µg/mL.
Take `COc1ccc(S(=O)(=O)N2CCc3ccccc3C2)cc1C(=O)O`: the kinetic solubility is 48.4 µg/mL (≈ 139 µM).
With `CC(Sc1ccc([N+](=O)[O-])cn1)C(=O)Nc1nccs1` (configuration not stated) the figure was 5 µg/mL (≈ 16.1 µM); with `COC(=O)c1c(N)sc2c1CC(C)(C)OC2`, above 36.2 µg/mL; with `COc1cc2c(cc1OC)CN(C(=O)c1ccc([N+](=O)[O-])o1)CC2`, above 49.8 µg/mL.
With `Cc1csc(SCC(=O)NC2CCCC2)n1` the figure was above 38.5 µg/mL.
`O=C(O)c1ccc(Nc2ccc(Cl)c(Cl)c2)c([N+](=O)[O-])c1` had a solubility (kinetic) above 49.1 µg/mL.
`O=C(COc1ccc(Cl)cc1Cl)OCC(=O)c1ccc[nH]1` gave a kinetic solubility of 8.2 µg/mL (≈ 25 µM).
With `Cc1ccc(C(=O)NCC(=O)N2CCCCCCC2)cc1` the figure was 42.3 µg/mL (≈ 147 µM); with `O=C(CN1C(=O)S/C(=C\c2ccc(C(=O)O)cc2)C1=O)Nc1ccccc1`, 32.2 µg/mL (≈ 84.2 µM); with `Cc1ccc(/C=C2\CCn3c2nc2cc(C(=O)O)ccc2c3=O)c(C)c1`, 45.7 µg/mL (≈ 132 µM).
With `CC(N=Cc1c(O)n(C2CC2)c(=S)[nH]c1=O)c1ccccc1` (configuration not stated) the figure was 2.6 µg/mL (≈ 8.24 µM); with `COC(=O)NCN1C(=O)C2C3C=CC(C3)C2C1=O` (configuration not stated), 34.4 µg/mL (≈ 137 µM).
`CC1(c2cccc(Br)c2)NC(=O)N(CC(=O)Nc2ccc3c(c2)OCCO3)C1=O` (configuration not stated) gave a kinetic solubility of 67.3 µg/mL (≈ 146 µM).
With `CN1C(=O)Cc2cc(S(=O)(=O)NCCc3ccccc3)ccc21` the figure was 39.1 µg/mL (≈ 118 µM).
With `O=[N+]([O-])c1cccc(NC(=S)N2CCc3ccccc32)c1` the figure was 7.6 µg/mL (≈ 25.4 µM); with `CN(C)c1ccc(NC(=O)c2cccc([N+](=O)[O-])c2)c2ccccc12`, 15.1 µg/mL (≈ 45 µM); with `CS(=O)(=O)c1ccc(C(=O)OCC(=O)Nc2cccnc2Cl)cc1[N+](=O)[O-]`, above 62.1 µg/mL.
Under `Cl.OC(CNCC#Cc1ccccc1)c1ccccc1` (configuration not stated) stands 35.9 µg/mL.
Turning to `Cc1ccc(C(=O)C(=O)c2ccc(C)c(N)c2)cc1N`, the solubility (kinetic) was 35 µg/mL (≈ 130 µM).
Under `O=c1[nH]cnc2c1C(c1ccccc1)c1c(nc[nH]c1=O)O2` stands above 44.1 µg/mL; under `CCCOP(=O)(c1ccc(N(C)C)cc1)C(O)c1cc(OC)ccc1OC` (configuration not stated), above 59 µg/mL; under `O=C(O)c1ccc2ncsc2c1`, above 26.9 µg/mL.
Under `O=C(NC(=S)N1CCOCC1)c1ccccc1Cl` stands above 42.7 µg/mL; under `O=C(O)C(=O)O.c1ccc2c(OCCCN3CCCCCC3)cccc2c1`, 32.8 µg/mL.
With `CCOC(=O)COc1ccc2c(c1)c(C(C)=O)c(C)n2Cc1ccccc1` the figure was 6.9 µg/mL (≈ 18.9 µM).
For the molecule `Cn1c(O)c(C=NCCN2CCOCC2)c(=O)n(C)c1=S`, the solubility (kinetic) is above 46.9 µg/mL.
Under `Clc1ccccc1OCCCCN1CCCCC1` stands 39.9 µg/mL (≈ 149 µM).
For `Cl.c1ccc(CN2CCNCC2)nc1`, the solubility (kinetic) was determined as 30.1 µg/mL.
With `COC(=O)c1cc(NC(=O)Cc2cccs2)cc(C(=O)OC)c1` the figure was 19.5 µg/mL (≈ 58.5 µM); with `Cc1ccc2c(COC(=O)CNC(=O)c3ccco3)cc(=O)oc2c1C`, 13.1 µg/mL (≈ 36.9 µM).
Molecule `O=C1Nc2ccccc2SC1c1ccccc1` (configuration not stated) registered a solubility (kinetic) of 1.7 µg/mL (≈ 7.04 µM).
With `COc1cccc(C2=NOC(C(=O)NCc3cccnc3)C2)c1` (configuration not stated) the figure was above 46.7 µg/mL.
With `Cc1cc(=O)c(C(=O)O)nn1-c1ccc(Cl)cc1` the figure was above 39.7 µg/mL.
Under `CCSc1nc2ccc(C)cc2cc1C#N` stands below 0.2 µg/mL; under `Cc1cc(N)ccc1NC(=O)CN1CCOCC1`, above 37.4 µg/mL; under `Cc1ccc(NC(=O)CCc2ccc(C)o2)c(Br)c1`, 4.2 µg/mL (≈ 13 µM).
The molecule `CC(C)(C)c1cc(CCC(=O)N2CCCC2)cc(C(C)(C)C)c1O` displayed a kinetic solubility of 43.8 µg/mL (≈ 132 µM).
Under `CCCCn1c(N)c(N(CC)C(=O)c2cccs2)c(=O)[nH]c1=O` stands 10.1 µg/mL (≈ 30 µM).
Under `COC(OC)c1ccnc(-c2ccc(OC(C)=O)cc2)n1` stands above 43.2 µg/mL; under `COC(=O)c1sccc1NC(=O)c1ccc(OC)c([N+](=O)[O-])c1`, below 0.4 µg/mL.
With `Cc1cc(Nc2ccc(C(=O)N3CCCCC3)cc2)c2cccc(C)c2n1` the figure was 4.8 µg/mL (≈ 13.4 µM).
